# Experimental data reported in EP2742937A1, “Compositions for use in the treatment of bacterial infections” (LIONEX Diagnostics and Therapeutics GmbH, priority 2012, dated 2014).
# Where two headings read alike, the source gives them in different places.
# How the values were obtained:
# M. tuberculosis H37Rv = test: Resazurin microtiter assay (REMA), MIC; assay type: cell-based; conditions: for synergistic effect with ethambutol: in words; for MIC: Mycobacterium tuberculosis
# L929 cell line = test: MTT cell proliferation assay (in vitro toxicity); assay type: cell-based, mouse; conditions: for IC50: Mus musculus, L929, 120 h
# [1] = in words; Haebich & Von Nussbaum, 2009; cited from earlier work
# M. bovis BCG = test: microbe, parasite or virus in culture; assay type: cell-based, Mycobacterium bovis BCG; conditions: for MIC With medium containing 50 % FBS / MIC in 100% medium: M. bovis BCG, resazurin assay; for MIC With medium containing 50 % FBS: 50 % fetal bovine serum; for MIC in 100% medium: no FBS; for MIC: Mycobacterium tuberculosis variant bovis BCG, BCG, read-out: MIC With medium containing 50 % FBS
# [2] = MTT assay after 5 days, individual substances
# [3] = H37RV, REMA, individual substance, read-out: MIC (µg/ml) against M. tuberculosis H37Rv Individual substance
# [4] = MTT assay after 5 days, individual substances, read-out: In vitro toxicity with L929 cell line IC50
# [5] = H37RV, read-out: MIC (µg/ml) against M. tuberculosis H37Rv With medium containing ethambutol
SMILES,"MIC (µg/ml) against M. tuberculosis H37Rv With medium containing ethambutol (M. tuberculosis H37Rv; REMA, Ethambutol at Conc. 0.3 µg/ml in medium) [µg/mL]","MIC (µg/ml) against M. tuberculosis H37Rv Individual substance (M. tuberculosis H37Rv; REMA, individual substance)",synergistic effect with ethambutol (M. tuberculosis H37Rv),In vitro toxicity with L929 cell line IC50 (L929 cell line; [2]) [µg/mL],serum protein binding [1],MIC (M. tuberculosis H37Rv; [3]) [µg/mL],IC50 (L929 cell line; [4]) [µg/mL],MIC With medium containing 50 % FBS (M. bovis BCG),MIC in 100% medium (M. bovis BCG),MIC (M. bovis BCG) [µg/mL],FIC (M. tuberculosis H37Rv; H37RV),MIC (µg/ml) against M. tuberculosis H37Rv Individual substance (M. tuberculosis H37Rv; H37RV) [µg/mL],"MIC (M. tuberculosis H37Rv; H37RV, read-out: MIC (µg/ml) against M. tuberculosis H37Rv Individual substance) [µg/mL]",MIC (M. tuberculosis H37Rv; [5]) [µg/mL],In vitro toxicity with L929 cell line IC50 (µg/ml) (L929 cell line; [2]),IC50 (L929 cell line; read-out: In vitro toxicity with L929 cell line IC50 (µg/ml)) [µg/mL],"MIC (µg/ml) against M. tuberculosis H37Rv Individual substance (M. tuberculosis H37Rv; REMA, individual substance, listed as ripostatin) [µg/mL]"
C/C=C/C/C=C(\C)C(O)CC/C(C)=C/C=C(\C)C(=O)c1c(O)cc([C@H](C)CC/C=C/NC(=O)OC)oc1=O (stereo partly drawn) [Corallopyronin],12.5,12.5 µg/mL,did not show synergism with ethambutol,25,high serum protein binding,,,,,,,,,,,,
CC[C@@H](CO)NCCN[C@@H](CC)CO [Ethambutol],,,,,,1.6,> 100,not affected by the addition of the FBS,2.5,2.5,,,,,,,
CCCC(C)=CC=C(C)C(=O)c1c(O)cc(C(C)CCC=CNC(=O)OC)oc1=O (stereo not drawn) [Myxopyronin A],,,synergistic effect,,high serum protein binding,,,did not inhibit the growth of M. bovis BCG,6.25,> 25,0.64,6.25,6.25,3.12,did not inhibit L929 cell proliferation at all tested concentrations,> 100,
C/C(=C\Cc1ccccc1)CCC(=O)C[C@H]1C[C@H](O)C/C(C)=C/C/C=C/C/C(CC(=O)O)=C\C(=O)O1 [Ripostatin],,no inhibition up to 25 µg/ml,did not show synergism with ethambutol,,,> 25,> 100,,,,,,,> 25,,,> 25
